These results are taken from patent US20110112299A1, “TETRACYCLIC COMPOUND” (KYOWA HAKKO KIRIN CO., LTD., priority 2008, published 2011).

Each structure is given as a SMILES string. Where only a bound is given, the exact number is not on record here.

Assay [1] deals with transcription-promoting activity via the glucocorticoid receptor (A549/MMTV-LTR cells). It counts as cell-based. Conditions: at a concentration of 300 nmol/L; relative to dexamethasone. As to the method:
A pGL4.14 plasmid (Promega, product number: AY864928) having a cloned MMTV-LTR fragment upstream of the luciferase gene (−200 to +100 relative to the transcription initiation site) was introduced into A549 cells, and the obtained strain which is constitutively resistant to a selective antibiotic hygromycin B (A549/MMTV-LTR) was used for evaluation. The A549/MMTV-LTR cells were transferred to a 96-well plate (25000 cells/well) and were cultured overnight. […] Next, 20 μL of the test compound diluted to 5-fold of the desired concentration with F-12 medium or 20 μL of 4 μmol/L dexamethasone was added thereto, and the mixture was incubated under 5% CO2 at 37° C. for 6 hours. To each well, 50 μL of a luminescence reagent (Promega, product number: E2550 or E2650) was added, and the mixture was stirred to dissolve the cells, and the luciferase activity was measured by a plate reader (PerkinElmer, TopCount).
MMTV activity (%)=100×(luminescence amount in the presence of the compound−luminescence amount in the absence of the compound)/(luminescence amount in the presence of dexamethasone−luminescence amount in the absence of the compound)

Assay [2] has as its target T1, recombinant human glucocorticoid receptor (Homo sapiens, UniProt P04150).
T1 construct: purchased Panvera/Invitrogen P2812 (kit P2893)
T1 sequence (P04150 1-777): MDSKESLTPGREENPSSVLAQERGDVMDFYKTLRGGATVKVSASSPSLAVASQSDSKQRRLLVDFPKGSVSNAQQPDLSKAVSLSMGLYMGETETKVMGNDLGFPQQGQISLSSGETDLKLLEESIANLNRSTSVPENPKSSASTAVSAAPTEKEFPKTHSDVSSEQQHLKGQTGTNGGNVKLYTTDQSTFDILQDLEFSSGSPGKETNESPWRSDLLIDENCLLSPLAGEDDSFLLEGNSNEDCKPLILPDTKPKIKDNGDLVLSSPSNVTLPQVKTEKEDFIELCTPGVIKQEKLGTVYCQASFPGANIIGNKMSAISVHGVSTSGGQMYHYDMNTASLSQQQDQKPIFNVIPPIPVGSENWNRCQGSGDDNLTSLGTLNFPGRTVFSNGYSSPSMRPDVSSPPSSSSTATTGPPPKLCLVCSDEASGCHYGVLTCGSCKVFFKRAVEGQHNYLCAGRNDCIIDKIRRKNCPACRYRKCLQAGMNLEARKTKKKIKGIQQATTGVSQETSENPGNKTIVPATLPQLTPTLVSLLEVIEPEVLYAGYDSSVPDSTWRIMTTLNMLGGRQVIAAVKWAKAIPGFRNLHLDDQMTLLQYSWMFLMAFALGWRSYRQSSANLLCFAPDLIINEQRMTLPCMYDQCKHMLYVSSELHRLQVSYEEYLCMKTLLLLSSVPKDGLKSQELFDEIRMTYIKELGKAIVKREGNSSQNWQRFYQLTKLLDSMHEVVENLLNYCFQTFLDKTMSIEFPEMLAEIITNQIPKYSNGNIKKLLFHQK
Nature of the assay: Human glucocorticoid receptor assay (2) (fluorescence polarization, Test Example 5). It counts as binding. Conditions: for selectivity for human glucocorticoid receptor over progesterone receptor: from the results of Test Examples 5 and 6. How it is done: In this assay, a fluorescence polarization assay kit (Panvera/Invitrogen, product number: P2893) was used. The recombinant human glucocorticoid receptor (product number: P2812), the Fluoromore (trademark)-labeled dexamethasone (GS Green, product number: P2813), the stabilizing peptide solution (product number: P2815), and the basic buffer solution (product number: P2814) which were used in the assay kit had been stored at −80° C. until used. A buffer solution for the assay was prepared by adding the basic buffer solution (10 fold dilution), the stabilizing peptide solution (10 fold dilution), and 1 mol/L DTT (dithiothreitol) (1000 fold dilution to give a final concentration of 1 mmol/L).
The assay was performed as follows. The test compound was diluted to 2-fold of the desired concentration with the buffer solution for the assay, and 16 μL of that was added to each well. Next, the Fluoromore (trademark)-labeled dexamethasone was diluted with the buffer solution for the assay so as to be 4 nmol/L, and 8 μL of that was added to each well. Further, the recombinant human glucocorticoid receptor was diluted with the buffer solution for the assay so as to be 16 nmol/L, and 8 μL of that was added to each well. After stirring the mixture, the mixture was incubated under a light-shielded condition at room temperature for 2 hours or more. The fluorescence polarization value of each well was measured using a plate reader (PerkinElmer, Fusion or Envision). To a negative control group, the compound was not added. To a positive control group, dexamethasone was added so as to give a final concentration of 1 μmol/L. The glucocorticoid receptor binding inhibitory rate (%) was calculated by the following formula.
Glucocorticoid receptor binding inhibitory rate (%)=100×[1−(fluorescence polarization value of test compound solution−fluorescence polarization value of positive control solution)/(fluorescence polarization value of negative control solution−fluorescence polarization value of positive control solution)]

Assay [3] deals with IL-1β induced IL-6 production (A549 cells). Nature of the assay: Inhibition assay for IL-1β induced IL-6 production in A549 cells (Test Example 3). It counts as cell-based, human. Conditions: Homo sapiens, at a concentration of 100 nmol/L, IL-1β stimulation, relative to dexamethasone, read-out: IL-6 production inhibitory activity. How it is done:
A549 cells cultured in F-12 medium supplemented with 10% bovine serum for 3 to 5 days were transferred to a 96-well plate (50000 cells/well) and then were cultured overnight. […] After the medium was removed by suction, 60 μL of F-12 medium was added to each well, and 20 μL of the test compound diluted to 5-fold of the desired concentration with F-12 medium or 20 μL of 4 μmol/L dexamethasone was added thereto. The test compound and the dexamethasone used here were prepared beforehand by dissolving in dimethyl sulfoxide (DMSO) and diluting with F-12 medium so that the final concentration of DMSO became 0.1% v/v or lower. After 30-minute incubation under 5% CO2 atmosphere at 37° C., 20 μL of 4 nmol/L IL-1β diluted with F-12 medium was added to each well, and then incubation was performed under a 5% CO2 atmosphere at 37° C. for 12 to 18 hours. The 96-well plate was centrifuged at 300×g at 4° C. for 5 minutes, and then the culture supernatant was collected for use as a sample for IL-6 measurement. The IL-6 produced in the culture supernatant was quantified by the ELISA method (R&D Systems, product number: DY206, DouSet ELISA Development System Human IL-6), and the production inhibition rate was calculated by the following formula. […]

In assay [1], `CC/C(=C1\c2cc3cnn(C(C)C)c3cc2COc2ccccc21)c1cccc(NS(C)(=O)=O)c1` [Compound 8, (Z)-5-{1-[3-(methanesulfonamide)phenyl]propylidene}-1-isopropyl-5,11-dihydro-1H-indazolo[5,6-e]benzo[b]oxepin] displayed an MMTV activity of 22%.
Turning to `CC/C(=C1\c2cc3cnn(C(C)C)c3cc2COc2ncccc21)c1cccc(NS(C)(=O)=O)c1` [Compound 25, (Z)-1-isopropyl-5-{1-[3-(methanesulfonamide)phenyl]propylidene}-5,11-dihydro-1H-indazolo[5,6-e]pyrido-[2,3-b]oxepin], the “selectivity for human glucocorticoid receptor over progesterone receptor” value (“selectivity” for short) in assay [2] was “selective binding activity to human glucocorticoid receptors”.
With `CC/C(=C1\c2cc3cnn(C4CC4)c3cc2COc2ncccc21)c1cccc(NS(C)(=O)=O)c1` [Compound 34, (Z)-1-cyclopropyl-5-{1-[3-(methanesulfonamide)phenyl]propylidene}-5,11-dihydro-1H-indazolo[5,6-e]pyrido[2,3-b]oxepin], the MMTV activity in assay [1] is given as 25%. The “selectivity” value in assay [2] is listed as “selective binding activity to human glucocorticoid receptors”.
As for `CC/C(=C1\c2cc3cnn(-c4ccc(F)cc4)c3cc2COc2ncccc21)c1cccc(NS(C)(=O)=O)c1` [Compound 43, (Z)-1-(4-fluorophenyl)-5-{1-[3-(methanesulfonamide)phenyl]-propylidene}-5,11-dihydro-1H-indazolo[5,6-e]pyrido[2,3-b]oxepin], the “selectivity” value in assay [2] is “selective binding activity to human glucocorticoid receptors”.
As to `CC/C(C(=O)Nc1nccs1)=C1\c2cc3cnn(-c4ccc(F)cc4)c3cc2COc2ccccc21` [Compound 89, (Z)-1-(4-fluorophenyl)-5-{1-[(thiazole-2-yl)aminocarbonyl]propylidene}-5,11-dihydro-1H-indazolo[5,6-e]benzo[b]oxepin], the inhibition at 0.1 µM in assay [3] was at least 80%; in assay [2] (at a concentration of 100 nmol/L, read-out: glucocorticoid receptor binding inhibitory activity), at least 80%.
For the compound `C[C@@H]1C[C@H]2[C@@H]3CCC4=CC(=O)C=C[C@]4(C)[C@@]3(F)[C@@H](O)C[C@]2(C)[C@@]1(O)C(=O)CO` [dexamethasone, reference compound], the MMTV activity in assay [1] was at least 100%.
For the compound `C[C@]12C=CC(=O)C=C1CC[C@@H]1[C@@H]2[C@@H](O)C[C@@]2(C)[C@H]1CC[C@]2(O)C(=O)CO` [prednisolone, reference compound], in assay [1], the MMTV activity is given as at least 80%.
